Reference: patent US6635245B1, “Strain of bacillus for controlling plant diseases” (priority 1999, dated 2003)
Read-outs that look alike come from different tables or passages of the source.

Experiments:
Format in all cases: in vivo
Peronospora parasitica = experiment: Plant test, downy mildew of Brassica; conditions: Brassica seedlings, 0 to 5 scale
Bremia lactucae = experiment: Plant test, downy mildew of lettuce (chemically-resistant strain); conditions: lettuce seedlings, 0 to 5 scale
Botrytis cinerea = experiment: B-30087 and B-21661 whole broths alone and together, gray mold on pepper; conditions: 20 ppm, 0 to 5 scale
Protocol: A strain of B. pumilus, NRRL B-30087 was tested with B. subtilis, NRRL B-21661, to determine if the fungicidal effect was greater if used together, than if each strain were used alone. Each strain was grown in a 10 liter or 5,000 liter fermenter, in a soy flour-based medium for approximately 50 hours. Each strain was tested as a whole broth culture against Botrytis cinerea gray mold on pepper, and Peronospora parasitica downy mildew on Brassica. The whole broths were tested at 1X, 1/2X and 1/8X. The two strains were then tested in various combinations with each other at 1/2X, 1/4X and 1/8X. A water check (control) and a chemical fungicide (BREAK® at 20 ppm) were also tested for comparison.

Uromyces phaseoli = experiment: Plant test, bean rust on snap bean; conditions: snap bean seedlings; 40 ppm; 0 to 5 scale
Phytophthora infestans = conditions: tomato seedlings, 0-5 scale
Uncinula necator = experiment: Plant test, grape powdery mildew; conditions: grape seedlings (Chardonnay); 25 ppm; 0 to 5 scale
Protocol: Grape seedlings (Chardonnay) were grown in two inch pots until the 6-9 true leaf stage. The culture of powdery mildew was maintained on grape seedlings at 22-26° C. under a 14 hour photoperiod. All but the youngest 2-4 leaves are removed. The NRRL Accession No. B-30087, the chemical fungicide (Rally®, myclobutanil at 25 ppm) and the water check are applied to runoff as above for the other pathogens tested. Four to five replications are used for each treatment. To inoculate with powdery mildew, leaves with mildew on maintenance seedlings are removed with scissors and each plant is inoculated individually. The surface of the maintenance seedling is gently brushed with a paintbrush so that spores are deposited onto the upper surface of the test plants. The procedure is performed using a 3× lighted magnification lens to assure all plants are getting equivalent inoculum. Flats with pots are placed in the dark for 16-24 hours at 20-24° C. Flats are kept at 22-26° C. with a 14 hour photoperiod for an additional 9-11 days until the test is read. […] The result using NRRL Accession No. B-30087 is shown below in Table 5.

In the case of `CCO[PH](=O)O` [Aliette, fosetyl-al], the “Score Rep 1” value (Peronospora parasitica; 240 ppm) is reported as 5.0, the “Score Rep 2” value (Peronospora parasitica; 240 ppm) is reported as 3.0 and the “Score Rep 1” value (Bremia lactucae; 240 ppm) is reported as 5.0. The “Score Rep 2” value (Bremia lactucae; 240 ppm) was 3.0.

With `CCCC1COC(Cn2cncn2)(c2ccc(Cl)cc2Cl)O1` (stereo not drawn) [Break ®, propiconazole] the “Botrytis cinerea Average disease rating (4 plants)” value (Botrytis cinerea) was 0.2, the “Score Rep 1” value (Uromyces phaseoli) was 0.0 and the “Score Rep 2” value (Uromyces phaseoli) was 0.0. The “Score Rep 3” value (Uromyces phaseoli) was 0.5.

In the case of `CO/C=C(/C(=O)OC)c1ccccc1Oc1cc(Oc2ccccc2C#N)ncn1` [Quadris, azoxystrobin], the “Score Rep 1” value (Phytophthora infestans; 62.5 ppm) is reported as 0.0, the “Score Rep 2” value (Phytophthora infestans; 62.5 ppm) is reported as 0.5 and the “Score Rep 3” value (Phytophthora infestans; 62.5 ppm) is reported as 0.0. The “Score Rep 4” value (Phytophthora infestans; 62.5 ppm) was 0.5, the “Score Rep 5” value (Phytophthora infestans; 62.5 ppm) was 0.0 and the “Score Rep 1” value (Phytophthora infestans; 125 ppm) was 0.0. For the same molecule, the “Score Rep 2” value (Phytophthora infestans; 125 ppm) was 0.0, the “Score Rep 3” value (Phytophthora infestans; 125 ppm) was 0.0 and the “Score Rep 4” value (Phytophthora infestans; 125 ppm) was 0.0. The “Score Rep 5” value (Phytophthora infestans; 125 ppm) was 0.0.

In the case of `CCCCC(C#N)(Cn1cncn1)c1ccc(Cl)cc1` (stereo not drawn) [Rally, myclobutanil], the “Score Rep 1” value (Uncinula necator) is reported as 0.0, the “Score Rep 2” value (Uncinula necator) is reported as 0.0 and the “Score Rep 3” value (Uncinula necator) is reported as 0.0. The “Score Rep 4” value (Uncinula necator) was 0.0.

For `COCC(=O)N(c1c(C)cccc1C)C(C)C(=O)OC` (stereo not drawn) [Ridomil, metalaxyl], the “Score Rep 1” value (Peronospora parasitica; 125 ppm) was 4.0, the “Score Rep 2” value (Peronospora parasitica; 125 ppm) was 4.0 and the “Score Rep 3” value (Peronospora parasitica; 125 ppm) was 4.0. The “Score Rep 1” value (Bremia lactucae; 125 ppm) was 3.0 and the “Score Rep 2” value (Bremia lactucae; 125 ppm) was 3.0.
